Values after ≈ are worked out from the molar mass of the structure shown. Active and inactive are the calls of the source. No cut-off for these calls is given here.
System: Vaccinia virus
Test: Antiviral activity against Vaccinia virus infected in human skin fibroblast cells assessed as inhibition of virus-induced cytopathogenicity at 200 ug/ml treated immediately after virus adsorption measured 2 to 3 days after virus infection
Format: functional, organism-based
Details: Orthopoxvirus vaccinia

Row | SMILES | inhibition
1 | CCc1cn([C@H]2O[C@H](CO)[C@@H](O)[C@@H]2O)c(=O)nc1N | inactive
2 | CCc1cn([C@H]2O[C@H](CO)[C@@H](O)[C@@H]2O)c(=O)[nH]c1=O | inactive

System: Vaccinia virus
Test: Antiviral activity against Vaccinia virus infected in human skin fibroblast cells assessed as inhibition of virus-induced cytopathogenicity treated immediately after virus adsorption measured 2 to 3 days after virus infection
Format: functional
Details: Orthopoxvirus vaccinia

Row | SMILES | MIC [µg/mL]
3 | CCc1cn([C@@H]2O[C@H](CO)[C@@H](O)[C@@H]2O)c(=O)[nH]c1=O | > 200
4 | Cc1cn([C@@H]2O[C@H](CO)[C@@H](O)[C@@H]2O)c(=O)[nH]c1=O | 2 (≈ 7.75 µM)
5 | CCc1cn([C@@H]2O[C@H](CO)[C@@H](O)[C@@H]2O)c(=O)nc1N | > 200
6 | O=c1ccn([C@@H]2O[C@H](CO)[C@@H](O)[C@@H]2O)c(=O)[nH]1 [ARAURIDINE] | > 200
7 | Nc1ccn([C@@H]2O[C@H](CO)[C@@H](O)[C@@H]2O)c(=O)n1 [CYTARABINE] | 0.02 (≈ 0.0822 µM)
